# Target: T1, SIRT1 (Homo sapiens, UniProt Q96EB6)
# T1 sequence (Q96EB6 1-747): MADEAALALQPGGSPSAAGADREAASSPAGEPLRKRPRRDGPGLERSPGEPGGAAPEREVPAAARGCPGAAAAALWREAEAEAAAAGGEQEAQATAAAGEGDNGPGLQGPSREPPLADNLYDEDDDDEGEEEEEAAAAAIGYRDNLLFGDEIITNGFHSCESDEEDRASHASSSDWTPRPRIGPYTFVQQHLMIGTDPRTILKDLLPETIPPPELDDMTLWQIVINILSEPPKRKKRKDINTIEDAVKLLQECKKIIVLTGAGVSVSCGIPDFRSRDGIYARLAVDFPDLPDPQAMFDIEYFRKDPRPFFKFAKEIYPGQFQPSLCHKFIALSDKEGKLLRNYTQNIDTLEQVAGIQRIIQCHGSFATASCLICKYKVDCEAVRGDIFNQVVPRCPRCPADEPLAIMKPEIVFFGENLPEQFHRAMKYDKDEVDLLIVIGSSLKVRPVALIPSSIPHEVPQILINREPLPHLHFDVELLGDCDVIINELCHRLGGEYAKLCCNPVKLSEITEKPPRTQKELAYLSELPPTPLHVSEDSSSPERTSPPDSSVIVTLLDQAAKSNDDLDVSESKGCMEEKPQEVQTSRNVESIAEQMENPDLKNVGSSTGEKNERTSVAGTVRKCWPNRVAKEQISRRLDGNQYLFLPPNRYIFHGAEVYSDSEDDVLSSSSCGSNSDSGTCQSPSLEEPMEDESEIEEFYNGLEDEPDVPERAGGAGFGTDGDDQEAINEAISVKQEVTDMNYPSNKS
# Assay: Trp mass spectrometry assay of SIRT1 activity (EC1.5, percent maximum activation)
# Format: biochemical
# Details: Trp mass spectrometry assay; for TRP Activity (EC1.5): EC1.5 = concentration giving 150% activation of SIRT1; for TRP MAX RESP (percent maximum fold activation): percent maximum activation of SIRT1
# Outline: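 Sirtuin deacetylation was run with purified N-His SIRT1 and the 5TMR Trp peptide across a compound titration, stopped after 25 min by acidification, and analysed by MS for OAADPR. Endpoint lay within the linear range.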
TRP Activity (EC1.5),TRP MAX RESP (percent maximum fold activation),SMILES
A (EC1.5<1 μM),A (Fold activation ≧150%),"O=C(Nc1cccc(OCCCO)n1)N1c2nc(-c3cccc(C(F)(F)F)c3)c(Cl)cc2N2CC[C@H]1C2 [Example 67, (4S)-8-chloro-N-(6-(3-hydroxypropoxy)pyridin-2-yl)-7-(3-(trifluoromethyl)phenyl)-3,4-dihydro-1,4-methanopyrido[2,3-b][1,4]diazepine-5(2H)-carboxamide]"
A (EC1.5<1 μM),A (Fold activation ≧150%),"Cl.O=C(Nc1cccc(OC[C@@H](O)CO)n1)N1c2nc(-c3cccc(C(F)(F)F)c3)c(Cl)cc2N2CC[C@H]1C2 [Example 68, (4S)-8-chloro-N-(6-((S)-2,3-dihydroxypropoxy)pyridin-2-yl)-7-(3-(trifluoromethyl)phenyl)-3,4-dihydro-1,4-methanopyrido[2,3-b][1,4]diazepine-5(2H)-carboxamide Hydrochloride]"
A (EC1.5<1 μM),A (Fold activation ≧150%),"O=C(Nc1cncc(OCCO)n1)N1c2nc(-c3cccc(C(F)(F)F)c3)c(Cl)cc2N2CC[C@H]1C2 [Example 69, (4S)-8-chloro-N-(6-(2-hydroxyethoxy)pyrazin-2-yl)-7-(3-(trifluoromethyl)phenyl)-3,4-dihydro-1,4-methanopyrido[2,3-b][1,4]diazepine-5(2H)-carboxamide]"
A (EC1.5<1 μM),A (Fold activation ≧150%),"O=C(Nc1ccnc(OCCO)n1)N1c2nc(-c3cccc(C(F)(F)F)c3)c(Cl)cc2N2CC[C@H]1C2 [Example 70, (4S)-8-chloro-N-(2-(2-hydroxyethoxy)pyrimidin-4-yl)-7-(3-(trifluoromethyl)phenyl)-3,4-dihydro-1,4-methanopyrido[2,3-b][1,4]diazepine-5(2H)-carboxamide]"
A (EC1.5<1 μM),A (Fold activation ≧150%),"O=C(Nc1cccc(OC[C@@H](O)CO)n1)N1c2nc(-c3cccc(C(F)(F)F)c3)c(Cl)cc2N2CC[C@H]1C2 [Example 71, (4S)-8-chloro-N-(6-((S)-2,3-dihydroxypropoxy)pyridin-2-yl)-7-(3-(trifluoromethyl)phenyl)-3,4-dihydro-1,4-methanopyrido[2,3-b][1,4]diazepine-5(2H)-carboxamide]"
A (EC1.5<1 μM),A (Fold activation ≧150%),"O=C(Nc1ccc(OC[C@@H](O)CO)nc1)N1c2nc(-c3cccc(C(F)(F)F)c3)c(Cl)cc2N2CC[C@H]1C2 [Example 72, (4S)-8-chloro-N-(6-((S)-2,3-dihydroxypropoxy)pyridin-3-yl)-7-(3-(trifluoromethyl)phenyl)-3,4-dihydro-1,4-methanopyrido[2,3-b][1,4]diazepine-5(2H)-carboxamide]"
A (EC1.5<1 μM),A (Fold activation ≧150%),"O=C(Nc1cncc(OCCCO)n1)N1c2nc(-c3cccc(C(F)(F)F)c3)c(Cl)cc2N2CC[C@H]1C2 [Example 73, (4S)-8-chloro-N-(6-(3-hydroxypropoxy)pyrazin-2-yl)-7-(3-(trifluoromethyl)phenyl)-3,4-dihydro-1,4-methanopyrido[2,3-b][1,4]diazepine-5(2H)-carboxamide]"
B (EC1.5 1-25 μM),A (Fold activation ≧150%),"O=C(Nc1cc(OC[C@@H](O)CO)ncn1)N1c2nc(-c3cccc(C(F)(F)F)c3)c(Cl)cc2N2CC[C@H]1C2 [Example 75, (4S)-8-chloro-N-(6-((S)-2,3-dihydroxypropoxy)pyrimidin-4-yl)-7-(3-(trifluoromethyl)phenyl)-3,4-dihydro-1,4-methanopyrido[2,3-b][1,4]diazepine-5(2H)-carboxamide]"

# Further lines, the molecule ahead of its results:
SMILES,TRP Activity (EC1.5),TRP MAX RESP (percent maximum fold activation)
"Cl.O=C(Nc1ccnc(OC[C@H](O)CO)c1)N1c2nc(-c3cccc(C(F)(F)F)c3)c(Cl)cc2N2CC[C@H]1C2 [Example 60, (4S)-8-chloro-N-(2-((R)-2,3-dihydroxypropoxy)pyridin-4-yl)-7-(3-(trifluoromethyl)phenyl)-3,4-dihydro-1,4-methanopyrido[2,3-b][1,4]diazepine-5(2H)-carboxamide, Hydrochloride]",A (EC1.5<1 μM),A (Fold activation ≧150%)
"O=C(Nc1ccnc(OC[C@@H](O)CO)c1)N1c2nc(-c3cccc(C(F)(F)F)c3)c(Cl)cc2N2CC[C@H]1C2 [Example 61, (4S)-8-chloro-N-(2-((S)-2,3-dihydroxypropoxy)pyridin-4-yl)-7-(3-(trifluoromethyl)phenyl)-3,4-dihydro-1,4-methanopyrido[2,3-b][1,4]diazepine-5(2H)-carboxamide]",A (EC1.5<1 μM),A (Fold activation ≧150%)
"Cl.O=C(Nc1cncc(OC[C@H](O)CO)n1)N1c2nc(-c3cccc(C(F)(F)F)c3)c(Cl)cc2N2CC[C@H]1C2 [Example 62, (4S)-8-chloro-N-(6-((R)-2,3-dihydroxypropoxy)pyrazin-2-yl)-7-(3-(trifluoromethyl)phenyl)-3,4-dihydro-1,4-methanopyrido[2,3-b][1,4]diazepine-5(2H)-carboxamide, Hydrochloride]",A (EC1.5<1 μM),A (Fold activation ≧150%)
"O=C(Nc1cc(OC[C@@H](O)CO)ccn1)N1c2nc(-c3cccc(C(F)(F)F)c3)c(Cl)cc2N2CC[C@H]1C2 [Example 63, (4S)-8-chloro-N-(4-((S)-2,3-dihydroxypropoxy)pyridin-2-yl)-7-(3-(trifluoromethyl)phenyl)-3,4-dihydro-1,4-methanopyrido[2,3-b][1,4]diazepine-5(2H)-carboxamide]",B (EC1.5 1-25 μM),A (Fold activation ≧150%)
"Cl.O=C(Nc1cc(OC[C@@H](O)CO)ccn1)N1c2nc(-c3cccc(C(F)(F)F)c3)c(Cl)cc2N2CC[C@H]1C2 [Example 64, (4S)-8-chloro-N-(4-((S)-2,3-dihydroxypropoxy)pyridin-2-yl)-7-(3-(trifluoromethyl)phenyl)-3,4-dihydro-1,4-methanopyrido[2,3-b][1,4]diazepine-5(2H)-carboxamide, Hydrochloride]",B (EC1.5 1-25 μM),A (Fold activation ≧150%)
"O=C(Nc1cncc(OC[C@H](O)CO)n1)N1c2nc(-c3cccc(C(F)(F)F)c3)c(Cl)cc2N2CC[C@H]1C2 [Example 65, (4S)-8-chloro-N-(6-((R)-2,3-dihydroxypropoxy)pyrazin-2-yl)-7-(3-(trifluoromethyl)phenyl)-3,4-dihydro-1,4-methanopyrido[2,3-b][1,4]diazepine-5(2H)-carboxamide]",A (EC1.5<1 μM),A (Fold activation ≧150%)
"O=C(Nc1cnc(OC[C@H](O)CO)nc1)N1c2nc(-c3cccc(C(F)(F)F)c3)c(Cl)cc2N2CC[C@H]1C2 [Example 66, (4S)-8-chloro-N-(2-((R)-2,3-dihydroxypropoxy)pyrimidin-5-yl)-7-(3-(trifluoromethyl)phenyl)-3,4-dihydro-1,4-methanopyrido[2,3-b][1,4]diazepine-5(2H)-carboxamide]",B (EC1.5 1-25 μM),A (Fold activation ≧150%)
